Data as given in patent publication US11407767B2, “Heterocyclyl substituted pyrrolopyridines that are inhibitors of the CDK12 kinase” (The University of Nottingham, priority 2017, dated 2022).
Where a name gives a salt, the structure may show the parent alone.

Target: CDK12/CycK (Homo sapiens, UniProt Q9NYV4)
Test: Inhibition of CDK12 (ADP-Glo kinase assay)
Type: biochemical
Details: 60 nM CDK12/CycK, 30 minutes pre-incubation, 1 μM ATP, 0.5 μM RBER-IRStide substrate, 1 h at 25° C., read-out: CDK12/cyclin K IC50
Protocol: Assay buffer comprised 50 mM HEPES pH 7.5, 1 mM DTT, 20 mM MgCl2, 3 mM MnCl2, 3 μM Na3VO4 and 50 μg/ml PEG8000. Kinase reactions were carried out in 384-well Optiplates™ (PerkinElmer 6007299). Test compounds were dissolved & diluted in dimethyl sulfoxide (DMSO) and cross diluted into assay buffer with a final DMSO concentration of 1% (v/v) in the assay. Test compounds (or 1% DMSO in control and blank wells) were pre-incubated with 60 nM CDK12/CycK for 30 minutes. After this time 1 μM Adenosine-5′-triphosphate (ATP) and 0.5 μM RBER-IRStide substrate (ProQinase 0863-0000-1) were added to commence the kinase reaction. Incubations were carried out for 1 h at 25° C. with kinase activity determined using the ADP-Glo™ reagent from Promega according to the manufacturer's instructions. Light generated is proportional to kinase activity and measured using a luminometer (EnVision, PerkinElmer). The signal obtained in the blank wells (containing no kinase) was subtracted from all other wells and IC50 values were determined by fitting a sigmoidal curve to % inhibition of control versus Log10 compound concentration.

Chain of CDK12/CycK (Q9NYV4 whole entry): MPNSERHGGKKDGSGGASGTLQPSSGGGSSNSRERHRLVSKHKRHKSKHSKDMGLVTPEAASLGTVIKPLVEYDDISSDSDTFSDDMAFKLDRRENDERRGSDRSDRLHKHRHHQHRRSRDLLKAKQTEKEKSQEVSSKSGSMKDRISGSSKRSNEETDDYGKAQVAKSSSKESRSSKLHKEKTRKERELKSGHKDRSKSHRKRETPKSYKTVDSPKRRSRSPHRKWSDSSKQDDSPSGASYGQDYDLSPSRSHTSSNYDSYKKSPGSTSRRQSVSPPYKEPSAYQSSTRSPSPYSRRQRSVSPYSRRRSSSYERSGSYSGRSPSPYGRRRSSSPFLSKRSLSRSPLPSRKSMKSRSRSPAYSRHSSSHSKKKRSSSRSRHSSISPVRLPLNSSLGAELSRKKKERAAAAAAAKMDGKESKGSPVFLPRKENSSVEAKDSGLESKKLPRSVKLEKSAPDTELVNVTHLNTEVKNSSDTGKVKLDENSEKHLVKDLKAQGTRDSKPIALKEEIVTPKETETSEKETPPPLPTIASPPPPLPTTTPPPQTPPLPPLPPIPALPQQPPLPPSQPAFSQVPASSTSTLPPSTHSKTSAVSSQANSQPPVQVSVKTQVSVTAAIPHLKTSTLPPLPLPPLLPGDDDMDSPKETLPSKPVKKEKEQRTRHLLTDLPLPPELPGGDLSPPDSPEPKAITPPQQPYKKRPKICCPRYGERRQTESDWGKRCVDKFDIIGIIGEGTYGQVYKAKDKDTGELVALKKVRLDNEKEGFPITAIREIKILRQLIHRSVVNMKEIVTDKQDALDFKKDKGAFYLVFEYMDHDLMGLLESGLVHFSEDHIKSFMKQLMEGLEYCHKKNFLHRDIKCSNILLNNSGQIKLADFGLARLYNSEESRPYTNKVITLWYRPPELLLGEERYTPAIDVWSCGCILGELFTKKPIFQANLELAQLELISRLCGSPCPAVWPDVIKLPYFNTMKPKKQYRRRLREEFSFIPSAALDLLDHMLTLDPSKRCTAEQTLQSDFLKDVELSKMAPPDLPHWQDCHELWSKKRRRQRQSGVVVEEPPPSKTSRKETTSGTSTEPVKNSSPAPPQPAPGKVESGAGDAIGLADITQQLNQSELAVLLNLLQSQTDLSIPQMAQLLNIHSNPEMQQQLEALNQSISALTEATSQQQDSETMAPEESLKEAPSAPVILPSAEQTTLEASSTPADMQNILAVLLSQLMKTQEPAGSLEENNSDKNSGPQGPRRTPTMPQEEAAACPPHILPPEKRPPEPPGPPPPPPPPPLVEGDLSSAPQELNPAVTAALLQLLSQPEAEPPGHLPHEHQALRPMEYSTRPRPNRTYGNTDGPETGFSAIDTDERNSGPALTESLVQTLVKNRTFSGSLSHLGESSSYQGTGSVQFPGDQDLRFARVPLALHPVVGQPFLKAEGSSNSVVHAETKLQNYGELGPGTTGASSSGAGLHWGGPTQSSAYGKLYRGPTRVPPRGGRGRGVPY
Chain of CDK12/CycK (O75909 whole entry partner): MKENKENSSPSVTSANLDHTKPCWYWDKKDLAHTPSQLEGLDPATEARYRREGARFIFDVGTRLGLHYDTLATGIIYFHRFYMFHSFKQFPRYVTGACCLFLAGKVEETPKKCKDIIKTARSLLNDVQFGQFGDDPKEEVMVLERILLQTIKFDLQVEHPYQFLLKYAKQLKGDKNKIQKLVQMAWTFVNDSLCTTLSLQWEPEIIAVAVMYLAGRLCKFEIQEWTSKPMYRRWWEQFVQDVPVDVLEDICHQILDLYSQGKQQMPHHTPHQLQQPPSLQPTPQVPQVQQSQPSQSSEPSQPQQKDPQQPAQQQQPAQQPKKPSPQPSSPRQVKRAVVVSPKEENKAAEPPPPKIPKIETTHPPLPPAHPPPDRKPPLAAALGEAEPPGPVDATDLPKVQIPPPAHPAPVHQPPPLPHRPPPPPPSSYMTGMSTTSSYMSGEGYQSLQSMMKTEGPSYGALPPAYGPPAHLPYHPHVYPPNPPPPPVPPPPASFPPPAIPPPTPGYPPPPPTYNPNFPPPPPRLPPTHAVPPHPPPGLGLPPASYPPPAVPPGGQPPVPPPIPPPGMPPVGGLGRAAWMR

Row | Compound | IC50
1 | CN(C)C/C=C/C(=O)Nc1ccc(C(=O)NCc2cc3c(-c4cnn5ncccc45)ccnc3[nH]2)cc1 [Example 181] | 100 to 1000 nM
2 | C=CC(=O)N1CCC[C@H]1C(=O)N1CC[C@H](c2cc3c(-c4cnn5ncccc45)ccnc3[nH]2)C1 [Example 162, 1-((S)-2-((S)-3-(4-(Pyrazolo[1,5-b]pyridazin-3-yl)-1H-pyrrolo[2,3-b]pyridin-2-yl)pyrrolidine-1-carbonyl)pyrrolidin-1-yl)prop-2-en-1-one] | < 100 nM
3 | C=CC(=O)N1CCC(C(=O)NCc2cc3c(-c4cnn5ncccc45)ccnc3[nH]2)CC1 [Example 80, 1-Acryloyl-N-((4-(pyrazolo[1,5-b]pyridazin-3-yl)-1H-pyrrolo[2,3-b]pyridin-2-yl)methyl)piperidine-4-carboxamide] | 1000 to 30000 nM
4 | C=CC(=O)N1CCOC[C@H]1C(=O)NCCc1cc2c(-c3cnn4ncccc34)ccnc2[nH]1 [Example 165, (S)-4-Acryloyl-N-(2-(4-(pyrazolo[1,5-b]pyridazin-3-yl)-1H-pyrrolo[2,3-b]pyridin-2-yl)ethyl)morpholine-3-carboxamide] | < 100 nM
5 | C=CC(=O)N1CCCC(C(=O)NCCc2cc3c(-c4cnn5ncccc45)ccnc3[nH]2)C1 (centres unmarked) [Example 75, 1-Acryloyl-N-(2-(4-(pyrazolo[1,5-b]pyridazin-3-yl)-1H-pyrrolo[2,3-b]pyridin-2-yl)ethyl)piperidine-3-carboxamide] | < 100 nM
6 | Cc1c[nH]c2nccc(-c3cnn4ncccc34)c12 [Example 8, 3-(3-Methyl-1H-pyrrolo[2,3-b]pyridin-4-yl)pyrazolo[1,5-b]pyridazine] | 1000 to 30000 nM
7 | COCCC(=O)Nc1ccccc1C(=O)N1CCC(c2cc3c(-c4cnn5ncccc45)ccnc3[nH]2)C1 (centres unmarked) [Example 163, 3-Methoxy-N-(2-(3-(4-(pyrazolo[1,5-b]pyridazin-3-yl)-1H-pyrrolo[2,3-b]pyridin-2-yl)pyrrolidine-1-carbonyl)phenyl)propanamide Formate Salt] | < 100 nM
8 | C=CC(=O)Nc1cccc(C(=O)NCc2cc3c(-c4cnn5ncccc45)ccnc3[nH]2)c1 [Example 180, 3-Acrylamido-N-((4-(pyrazolo[1,5-b]pyridazin-3-yl)-1H-pyrrolo[2,3-b]pyridin-2-yl)methyl)benzamide] | 100 to 1000 nM
9 | C=CC(=O)Nc1ccc(C(=O)N2CC[C@@H](c3cc4c(-c5cnn6ncccc56)ccnc4[nH]3)C2)cc1 (single isomer, unassigned) [Example 148, N-(4-(3-(4-(Pyrazolo[1,5-b]pyridazin-3-yl)-1H-pyrrolo[2,3-b]pyridin-2-yl)pyrrolidine-1-carbonyl)phenyl)acrylamide] | < 100 nM
10 | CC(C)(C)OC(=O)N1CCN(Cc2cc3c(-c4cnn5ncccc45)ccnc3[nH]2)CC1 [Example 15, tert-Butyl 4-((4-(pyrazolo[1,5-b]pyridazin-3-yl)-1H-pyrrolo[2,3-b]pyridin-2-yl)methyl)piperazine-1-carboxylate] | 1000 to 30000 nM
11 | C=CC(=O)N1CCC[C@H]1C(=O)NCc1cc2c(-c3cnn4ncccc34)ccnc2[nH]1 [Example 183, (S)-1-Acryloyl-N-((4-(pyrazolo[1,5-b]pyridazin-3-yl)-1H-pyrrolo[2,3-b]pyridin-2-yl)methyl)pyrrolidine-2-carboxamide] | 1000 to 30000 nM
12 | CCOCCC(=O)Nc1ccc(C(=O)NCCc2cc3c(-c4cnn5ncccc45)ccnc3[nH]2)cc1 [Example 81, 4-(3-Ethoxypropanamido)-N-(2-(4-(pyrazolo[1,5-b]pyridazin-3-yl)-1H-pyrrolo[2,3-b]pyridin-2-yl)ethyl)benzamide] | < 100 nM
13 | O=C(NCCc1cc2c(-c3ccncc3)ccnc2[nH]1)[C@@H]1CCCN1 [Example 107, (S)—N-(2-(4-(Pyridin-4-yl)-1H-pyrrolo[2,3-b]pyridin-2-yl)ethyl)pyrrolidine-2-carboxamide] | 1000 to 30000 nM
14 | Cc1ccc2c(-c3ccnc4[nH]ccc34)cnn2n1 [Example 26, 6-Methyl-3-(1H-pyrrolo[2,3-b]pyridin-4-yl)pyrazolo[1,5-b]pyridazine] | 1000 to 30000 nM
